Reference: patent US12286442B2, “Methods and materials for increasing transcription factor eb polypeptide levels” (University of Pittsburgh—Of the Commonwealth System of …, priority 2019, dated 2025)

Tested on: TFEB
Assay: High content screen measuring TFEB nuclear accumulation (TFEB nuclear/cytosol ratio) in BEAS-2B cells stably expressing TFEB-EGFP
Type: cell-based, human
Conditions: 18 hours incubation
In short: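 Readout: lowest compound concentration giving a 25% rise in nuclear/cytosol TFEB-GFP ratio, from DAPI-masked nuclear and mask-expanded cytosolic signals. Cells (BEAS-2B, TFEB-EGFP stable, ~2300–2500/well) rested 8 hours, then treated 18 hours with compound serial dilutions in 2% FBS medium before PFA fixation and DAPI staining.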

SMILES | efficacy (minimal compound concentration needed to increase TFEB nuclear/cytosol ratio by 25%)
c1cc(-c2nc(Nc3ccc4cnsc4c3)c3cnccc3n2)ccn1 [Compound 139] | + (“+” equals >25 μM)
Cc1ccc(Nc2nc(-c3ccc(C)cc3)nc3ccccc23)cc1 [Compound 197] | + (“+” equals >25 μM)
Fc1cccc(Nc2nc(-c3cncs3)nc3ccccc23)c1 [Compound 79] | + (“+” equals >25 μM)
c1ccc2c(Nc3ccc4nc(C5CC5)sc4c3)nc(-c3ccncc3)nc2c1 [Compound 91] | +++ (“+++” equals ≤1 μM)
c1cc(-c2nc(Nc3ccc4c(c3)OCO4)c3cnccc3n2)ccn1 [Compound 123] | ++ (“++” equals between ≤25 μM and >1 μM)
c1ccc2c(Nc3ccc4cc[nH]c4c3)nc(-c3ccncc3)nc2c1 [Compound 25] | +++ (“+++” equals ≤1 μM)
CCc1nc2ccc(Nc3nc(-c4ccncc4)nc4ccc(OC)cc34)cc2s1 [Compound 149] | ++ (“++” equals between ≤25 μM and >1 μM)
Fc1cc(Nc2nc(-c3cncs3)nc3ccccc23)cc2cc[nH]c12 [Compound 395] | +++ (“+++” equals ≤1 μM)
c1ccc2c(Nc3ccc4[nH]nnc4c3)nc(-c3cncs3)nc2c1 [Compound 387] | + (“+” equals >25 μM)
CCc1nc2ccc(Nc3nc(-c4ccncc4)nc4c(F)cccc34)cc2s1 [Compound 369] | + (“+” equals >25 μM)
Cc1cccc2c(Nc3ccc4ncsc4c3)nc(-c3ccncc3)nc12 [Compound 371] | +++ (“+++” equals ≤1 μM)
Cc1cc(C)cc(Nc2nc(-c3ccncc3)nc3ccccc23)c1 [Compound 2] | +++ (“+++” equals ≤1 μM)
c1cc(-c2cc3cnccc3c(Nc3ccc4[nH]c(C5CC5)cc4c3)n2)ccn1 [Compound 399] | +++ (“+++” equals ≤1 μM)
Cn1cnc2ccc(Nc3nc(-c4ccncc4)nc4ccccc34)cc21 [Compound 141] | +++ (“+++” equals ≤1 μM)
Cc1nc2ccc(Nc3nc(-c4ccncc4)nc4ncccc34)cc2o1 [Compound 146] | +++ (“+++” equals ≤1 μM)
c1cc(Nc2nc(-c3ccncc3)nc3ccccc23)c2[nH]ccc2c1 [Compound 98] | +++ (“+++” equals ≤1 μM)
CC(C)c1nc2ccc(Nc3nc(-c4ccncc4)nc4ncccc34)cc2o1 [Compound 375] | +++ (“+++” equals ≤1 μM)
O=C(NCc1ccco1)c1ccc2c(=O)n(-c3ccccc3)c(=O)n(Cc3cccc(F)c3)c2c1 [Compound 234] | ++ (“++” equals between ≤25 μM and >1 μM)
CNc1ccc(Nc2nc(-c3ccncc3)nc3ccccc23)cc1 [Compound 59] | ++ (“++” equals between ≤25 μM and >1 μM)
Fc1cccc2c(Nc3ccc4cnsc4c3)nc(-c3ccncc3)nc12 [Compound 382] | + (“+” equals >25 μM)
c1cc(-c2nc(Nc3ccc4ncsc4c3)c3cnccc3n2)ccn1 [Compound 122] | + (“+” equals >25 μM)
c1cnc2nc(-c3ccncc3)nc(Nc3ccc4cn[nH]c4c3)c2c1 [Compound 135] | ++ (“++” equals between ≤25 μM and >1 μM)
c1cnc2nc(-c3ccncc3)nc(Nc3ccc4nc(C5CC5)sc4c3)c2c1 [Compound 131] | +++ (“+++” equals ≤1 μM)
COc1cccc2nc(-c3ccncc3)nc(Nc3ccc4nc(C(C)C)sc4c3)c12 [Compound 152] | ++ (“++” equals between ≤25 μM and >1 μM)
O=c1[nH]c2ccc(Nc3nc(-c4ccncc4)nc4ccccc34)cc2[nH]1 [Compound 39] | + (“+” equals >25 μM)
COc1cccc(Nc2nc(-c3ccncc3)nc3ccccc23)c1 [Compound 190] | ++ (“++” equals between ≤25 μM and >1 μM)
c1cnc2nc(-c3ccncc3)nc(Nc3ccc4[nH]ncc4c3)c2c1 [Compound 80] | ++ (“++” equals between ≤25 μM and >1 μM)
CCc1nc2ccc(Nc3nc(-c4ccncc4)nc4cccc(OC)c34)cc2s1 [Compound 361] | ++ (“++” equals between ≤25 μM and >1 μM)
c1cnc2nc(-c3ccncc3)nc(Nc3ccc4nc(C5CC5)oc4c3)c2c1 [Compound 391] | +++ (“+++” equals ≤1 μM)
Fc1cccc(Nc2nc(-c3cncnc3)nc3ccccc23)c1 [Compound 8] | + (“+” equals >25 μM)

Tested on: BEAS-2B cells
Assay: Toxicity: compound concentration needed to induce greater than 50 percent of cell loss
Type: cell-based, human
Conditions: 18 hours incubation
In short: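 Reported value is the concentration giving greater than 50 percent cell loss, grouped into bins (≥25 μM; between 1 and 25 μM; ≤1 μM as "+++"). Measured by high-content imaging of DAPI-stained BEAS-2B TFEB-EGFP cells fixed after 18 h compound exposure.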

SMILES | toxicity (compound concentration needed to induce greater than 50 percent of cell loss)
c1cc(-c2nc(Nc3ccc4cnsc4c3)c3cnccc3n2)ccn1 [Compound 139] | + (cell loss of greater than 50 percent at a concentration that equals or is greater than 25 μM was represented as)
Cc1ccc(Nc2nc(-c3ccc(C)cc3)nc3ccccc23)cc1 [Compound 197] | + (cell loss of greater than 50 percent at a concentration that equals or is greater than 25 μM was represented as)
Fc1cccc(Nc2nc(-c3cncs3)nc3ccccc23)c1 [Compound 79] | + (cell loss of greater than 50 percent at a concentration that equals or is greater than 25 μM was represented as)
c1ccc2c(Nc3ccc4nc(C5CC5)sc4c3)nc(-c3ccncc3)nc2c1 [Compound 91] | + (cell loss of greater than 50 percent at a concentration that equals or is greater than 25 μM was represented as)
c1cc(-c2nc(Nc3ccc4c(c3)OCO4)c3cnccc3n2)ccn1 [Compound 123] | + (cell loss of greater than 50 percent at a concentration that equals or is greater than 25 μM was represented as)
c1ccc2c(Nc3ccc4cc[nH]c4c3)nc(-c3ccncc3)nc2c1 [Compound 25] | ++ (cell loss of greater than 50 percent at a concentration less than 25 μM and greater than 1 μM was represented as)
CCc1nc2ccc(Nc3nc(-c4ccncc4)nc4ccc(OC)cc34)cc2s1 [Compound 149] | ++ (cell loss of greater than 50 percent at a concentration less than 25 μM and greater than 1 μM was represented as)
Fc1cc(Nc2nc(-c3cncs3)nc3ccccc23)cc2cc[nH]c12 [Compound 395] | + (cell loss of greater than 50 percent at a concentration that equals or is greater than 25 μM was represented as)
c1ccc2c(Nc3ccc4[nH]nnc4c3)nc(-c3cncs3)nc2c1 [Compound 387] | + (cell loss of greater than 50 percent at a concentration that equals or is greater than 25 μM was represented as)
CCc1nc2ccc(Nc3nc(-c4ccncc4)nc4c(F)cccc34)cc2s1 [Compound 369] | + (cell loss of greater than 50 percent at a concentration that equals or is greater than 25 μM was represented as)
Cc1cccc2c(Nc3ccc4ncsc4c3)nc(-c3ccncc3)nc12 [Compound 371] | + (cell loss of greater than 50 percent at a concentration that equals or is greater than 25 μM was represented as)
Cc1cc(C)cc(Nc2nc(-c3ccncc3)nc3ccccc23)c1 [Compound 2] | + (cell loss of greater than 50 percent at a concentration that equals or is greater than 25 μM was represented as)
c1cc(-c2cc3cnccc3c(Nc3ccc4[nH]c(C5CC5)cc4c3)n2)ccn1 [Compound 399] | + (cell loss of greater than 50 percent at a concentration that equals or is greater than 25 μM was represented as)
Cn1cnc2ccc(Nc3nc(-c4ccncc4)nc4ccccc34)cc21 [Compound 141] | ++ (cell loss of greater than 50 percent at a concentration less than 25 μM and greater than 1 μM was represented as)
Cc1nc2ccc(Nc3nc(-c4ccncc4)nc4ncccc34)cc2o1 [Compound 146] | + (cell loss of greater than 50 percent at a concentration that equals or is greater than 25 μM was represented as)
c1cc(Nc2nc(-c3ccncc3)nc3ccccc23)c2[nH]ccc2c1 [Compound 98] | + (cell loss of greater than 50 percent at a concentration that equals or is greater than 25 μM was represented as)
CC(C)c1nc2ccc(Nc3nc(-c4ccncc4)nc4ncccc34)cc2o1 [Compound 375] | + (cell loss of greater than 50 percent at a concentration that equals or is greater than 25 μM was represented as)
O=C(NCc1ccco1)c1ccc2c(=O)n(-c3ccccc3)c(=O)n(Cc3cccc(F)c3)c2c1 [Compound 234] | + (cell loss of greater than 50 percent at a concentration that equals or is greater than 25 μM was represented as)
CNc1ccc(Nc2nc(-c3ccncc3)nc3ccccc23)cc1 [Compound 59] | + (cell loss of greater than 50 percent at a concentration that equals or is greater than 25 μM was represented as)
Fc1cccc2c(Nc3ccc4cnsc4c3)nc(-c3ccncc3)nc12 [Compound 382] | + (cell loss of greater than 50 percent at a concentration that equals or is greater than 25 μM was represented as)
c1cc(-c2nc(Nc3ccc4ncsc4c3)c3cnccc3n2)ccn1 [Compound 122] | + (cell loss of greater than 50 percent at a concentration that equals or is greater than 25 μM was represented as)
c1cnc2nc(-c3ccncc3)nc(Nc3ccc4cn[nH]c4c3)c2c1 [Compound 135] | + (cell loss of greater than 50 percent at a concentration that equals or is greater than 25 μM was represented as)
c1cnc2nc(-c3ccncc3)nc(Nc3ccc4nc(C5CC5)sc4c3)c2c1 [Compound 131] | + (cell loss of greater than 50 percent at a concentration that equals or is greater than 25 μM was represented as)
COc1cccc2nc(-c3ccncc3)nc(Nc3ccc4nc(C(C)C)sc4c3)c12 [Compound 152] | + (cell loss of greater than 50 percent at a concentration that equals or is greater than 25 μM was represented as)
O=c1[nH]c2ccc(Nc3nc(-c4ccncc4)nc4ccccc34)cc2[nH]1 [Compound 39] | + (cell loss of greater than 50 percent at a concentration that equals or is greater than 25 μM was represented as)
COc1cccc(Nc2nc(-c3ccncc3)nc3ccccc23)c1 [Compound 190] | + (cell loss of greater than 50 percent at a concentration that equals or is greater than 25 μM was represented as)
c1cnc2nc(-c3ccncc3)nc(Nc3ccc4[nH]ncc4c3)c2c1 [Compound 80] | + (cell loss of greater than 50 percent at a concentration that equals or is greater than 25 μM was represented as)
CCc1nc2ccc(Nc3nc(-c4ccncc4)nc4cccc(OC)c34)cc2s1 [Compound 361] | + (cell loss of greater than 50 percent at a concentration that equals or is greater than 25 μM was represented as)
c1cnc2nc(-c3ccncc3)nc(Nc3ccc4nc(C5CC5)oc4c3)c2c1 [Compound 391] | + (cell loss of greater than 50 percent at a concentration that equals or is greater than 25 μM was represented as)
Fc1cccc(Nc2nc(-c3cncnc3)nc3ccccc23)c1 [Compound 8] | + (cell loss of greater than 50 percent at a concentration that equals or is greater than 25 μM was represented as)
